Entries after “also recorded” stand apart in the source; their conditions may differ.
Key:
[1] = system: E11.5 AGM cells; assay: E11.5 AGM explant culture with drugs followed by colony formation (CFU) assay; format: cell-based, mouse; conditions: for multipotent GEMM colony formation: E11.5 AGM, 24-48 hr incubation, CFU assay
Description: We first coated each well of the 6-well FlexCell plate using Fibronectin/Matrigel and allowed it to settle on the nylon membrane of each well. Then we seeded two embryo equivalent (e.e.) single-cell suspension of AGM (composed of endothelial, hemogenic endothelial, hematopoietic, vascular smooth muscle (VSMCs), and mesenchymal stromal cells)-derived cells in each FlexCell well, with a coating of Fibronectin/Matrigel allows AGM-derived (sorted or not sorted) cells to adhere to the bottom of the well. We filled each well with an explant culture medium containing Myelocult and growth factors (27, 28). We put these 6-well plates into the FlexCell machine and applied cyclic strain (4-12%) for 6-48 hours using customized pins hooked to the bottom of each well. We inserted the customized rubber gasket in several wells to simulate static control conditions as well. Next we added drugs modulating the stretch-activated ion channel signaling in a few wells undergoing the external cyclic strain. After 6-48 hours of external stimulation of circumferential stretch, we harvested AGM-derived cells from the FlexCell plate and analyzed their capacity to make hematopoietic cells: (I) We performed CFU assays using Methocult media to count multi-potential granulocyte, erythroid, macrophage, megakaryocyte progenitors (GEMM), granulocyte-macrophage progenitors (CFU-GM, CFU-M, CFU-G), and erythroid progenitor (BFU-E) colonies after seven days of seeding AGM derived sorted cells. (II) We analyzed the expression levels of Runx1, c-Myb, Lmo2, Gata2, CD144, and Gata1. (III) We also stained AGM-derived cells with fluorescently labeled conjugated antibodies to measure the expression levels of Flk1, CD144, CD41, c-Kit, & CD45.2. (IV) We injected two e.e. AGM (donor; CD45.2)-derived cells in sub-lethally irradiated CD45.1 (SJL; recipient) mice. We analyzed long-term engraftment and multi-lineage reconstitution potential of donor cells for 16 weeks followed by serial-transplantation to differentiate between HSCs and hemogenic endothelial cells. (V) We also performed limiting dilution assays to analyze the number of HSCs generated per AGM-derived cell following 2D circumferential stretch.
Using a customized bioreactor based on organ-on-a-chip (FIG. 4), we applied 2D circumferential stretch (6% cyclic strain, 24 hr) to a single cell suspension of two e.e. E11.5 AGM cells. In parallel, we also incubated two e.e. E11.5 AGM static cells with Trpv4 agonist (GSK101 (29)).
(§1) In mice, the first heartbeat occurs at E8.25, and HSCs begin to emerge from AGM-derived hemogenic endothelium between E10.5-E12.5 (10, 11). To investigate whether circumferential stretch-activated ion channels are also involved in mammalian HSC emergence, we incubated E11.5 AGM with non-specific SAC channels inhibitor (GdCl3) and pan-Trpv channel inhibitor (Ruthenium Red) in explant culture media and analyzed their hematopoietic CFU capacity, and the expression of endothelial and hematopoietic genes (CD41, CD45.2, c-Kit, Flk1, CD144).
To further investigate the influence of Trpv4 on HSC formation from hemogenic endothelial cells, we incubated E11.5 AGM (28) with Trpv4 agonist (GSK101, 4α-PDD (44)) and Trpv4 antagonist (GSK 205) for 24-48 hr (FIG. 9).

[2] = system: zebrafish embryos; assay: zebrafish embryos incubated with stretch-activated ion channel modulators, qRT-PCR and WISH for HSPC surrogate markers; format: in vivo; conditions: control zebrafish embryos, incubation between 19-42 hpf
Description: An impact of circumferential stretch is communicated by member(s) of the […] superfamily, Trp-superfamily, ENaC/DEG superfamily, and/or Piezo family (36-39). […] However, the direct role of Trpv4 in HSC emergence has not been established. We therefore treated zebrafish embryos with a pan-inhibitor of Trpv channels (Ruthenium RED; (41)), Trpv4 antagonist (GSK 205; (42)), and Trpv4 agonist (GSK101; (29)) between 19-42 hpf, followed by qRT-PCR and WISH for HSPC surrogate markers (c-myb and runx1).

[3] = system: sih-silenced embryos; assay: silent heart (sih)-silenced zebrafish embryos incubated with trpv4 agonist, HSPC formation; format: in vivo
Experimental: Silent heart cardiac troponin (sih, tnnt2)-mutant embryos lack heartbeat and blood circulation (43). […] Because heartbeat-mediated pulse pressure on blood vessels stimulates HSC emergence, we studied whether the activation of the Trpv4 ion channels triggers HSC formation in the absence of a heartbeat and blood circulation. We therefore incubated sih-silenced embryos (casper or cd41:eGFP::flk1:mCherry) with trpv4 agonist (GSK101) between 19-42 hpf.

[4] = system: E11.5 AGM cells; assay: transplant of treated E11.5 AGM cells into irradiated recipient mice, engraftment and multi-lineage reconstitution; format: in vivo, mouse; conditions: 2 e.e. AGM per recipient
Description: We first coated each well of the 6-well FlexCell plate using Fibronectin/Matrigel and allowed it to settle on the nylon membrane of each well. Then we seeded two embryo equivalent (e.e.) single-cell suspension of AGM (composed of endothelial, hemogenic endothelial, hematopoietic, vascular smooth muscle (VSMCs), and mesenchymal stromal cells)-derived cells in each FlexCell well, with a coating of Fibronectin/Matrigel allows AGM-derived (sorted or not sorted) cells to adhere to the bottom of the well. We filled each well with an explant culture medium containing Myelocult and growth factors (27, 28). […] After 6-48 hours of external stimulation of circumferential stretch, we harvested AGM-derived cells from the FlexCell plate and analyzed their capacity to make hematopoietic cells: (I) We performed CFU assays using Methocult media to count multi-potential granulocyte, erythroid, macrophage, megakaryocyte progenitors (GEMM), granulocyte-macrophage progenitors (CFU-GM, CFU-M, CFU-G), and erythroid progenitor (BFU-E) colonies after seven days of seeding AGM derived sorted cells. (II) We analyzed the expression levels of Runx1, c-Myb, Lmo2, Gata2, CD144, and Gata1. […] We analyzed long-term engraftment and multi-lineage reconstitution potential of donor cells for 16 weeks followed by serial-transplantation to differentiate between HSCs and hemogenic endothelial cells. […]

[5] = system: human umbilical vein endothelial cells (HUVEC); assay: incubation of HUVEC with Trpv4 agonist, intracellular calcium levels; format: cell-based
[6] = system: E11.5 AGM; assay: E11.5 AGM explant culture, expression of endothelial and hematopoietic genes; format: cell-based, mouse; conditions: data not shown
Experimental: as §1

[7] = system: cdh5-silenced embryos; assay: cdh5-silenced zebrafish embryos incubated with NOS inhibitor, HSC formation; format: in vivo; conditions: incubation between 19-48 hpf
Description: In zebrafish the heart begins to beat around 23 hpf, the blood circulation begins at approximately 24-26 hpf, and definitive HSCs emerge from hemogenic endothelial cells in the AGM region between 26-48 hpf (11). Blood flow generates shear-stress on the ventral wall of the aortic endothelium and stimulates the endothelial-to-HSC transition by activating the NOS pathway (12, 13). When we performed time-lapse confocal imaging of both the control and the cdh5-silenced cd41:eGFP:flk1:mCherry embryos between 30-48 hpf, we found cdh5-silenced cd41:eGFP^low HSCs emerging from flk1:mCherry^+ endothelial cells despite early circulation arrest (FIG. 1A-B). In addition, we incubated cdh5-silenced embryos in the presence of L-NAME, a pharmacological inhibitor of NOS (12), between 19-48 hpf. […] Thus, HSCs would emerge from hemogenic endothelial cells, despite impaired circulation and NOS inhibition. These striking data led us to investigate shear stress-independent biomechanical and molecular mechanisms responsible for the endothelial transition to HSCs.

| SMILES | multipotent GEMM colony formation [1] | expression of HSPC surrogate markers runx1 and c-myb [2] | expression of hematopoietic genes [6] | other results |
| --- | --- | --- | --- | --- |
| CCCCCCCCCC(=O)O[C@@H]1[C@@H](C)[C@@]2(O)[C@@H](C=C(CO)C[C@@]3(O)C(=O)C(C)=C[C@@H]23)[C@@H]2C(C)(C)[C@]12OC(=O)CCCCCCCCC [4α-PDD, 4alpha-phorbol 12,13-didecanoate] | stimulates multipotent progenitor (GEMM) formation; also recorded: stimulated multipotent GEMM formation | – | – | – |
| CC(C)C[C@H](NC(=O)c1cc2ccccc2s1)C(=O)N1CCN(C(=O)[C@H](CO)NS(=O)(=O)c2ccc(Cl)cc2Cl)CC1 [GSK101] | Increase in GEMM; also recorded: stimulates multipotent progenitor (GEMM) formation; also recorded: enhanced GEMM formation; also recorded: stimulated multipotent GEMM formation | enhances HSPC formation; also recorded: increased the expression of HSPC markers | – | formation of cd41:eGFP+ HSCs ([3]; sih-silenced cd41-eGFP:flk1-mCherry embryos): rescues the formation of cd41:eGFP^+ HSCs; HSPC formation (mRNA expression levels of runx1 and c-myb) ([3]; sih-silenced embryos, 19-42 hpf, WISH and qRT-PCR): rescues hematopoietic stem progenitor cell (HSPC) formation; percentage of engraftment (CD45.2+ peripheral blood chimerism) ([4]; after 8 weeks): Increase; also recorded: increased the percentage of engraftment; multi-lineage reconstitution ([4]; peripheral blood after 8 weeks): increased; [Ca+2]i levels [5]: increase in [Ca^+2]i levels |
| [Cl][Gd]([Cl])[Cl] [GdCl3, Gadolinium Chloride] | – | reduced | reduced | multipotent GEMM colony formation ([1]; listed as GdC13): attenuates GEMM formation; also recorded: reduced |
| CCCCCCOC(=O)[C@]1(O)C[C@@H]2O[C@@]1(C)n1c3ccccc3c3c4c(c5c6ccccc6n2c5c31)C(=O)NC4 [KT5720] | – | – | – | Trpv4 agonist-mediated increase in multipotent GEMM formation ([1]; E11.5 AGM explant culture, together with Trpv4 agonist GSK101, 24 hr): attenuated; also recorded: attenuates stimulating impact of Trpv4 agonist |
| COC(=O)[C@@H](N)CCCNC(=N)N[N+](=O)[O-] [L-NAME] | – | – | – | HSC formation (zf-runx1 and zf-c-Myb expression) [7]: did not abolish HSC formation |
| N.N.N.N.N.N.N.N.N.N.N.N.N.N.[Cl-].[Cl-].[Cl-].[Cl-].[Cl-].[Cl-].[O-2].[O-2].[Ru+3].[Ru+3].[Ru+4] [Ruthenium Red] | attenuates GEMM formation; also recorded: reduced | reduction in runx1 and c-myb expression | reduced | – |
